# Reference: US9211283B2, “Nanoparticle carrier systems based on human serum albumin for photodynamic therapy” (Biolitec Pharma Marketing Ltd, priority 2009, dated 2015)
# Tests used:
# Jurkat cells = test: Dark toxicity (trypan blue test, apoptotic blebbing); format: cell-based; details: 3 μM mTHPC, 1 h, 3 h, 5 h and 24 h incubation in darkness, FIG. 6A
# Method: Intracellular uptake and phototoxicity of the present nanoparticles formulation was studied using Jurkat-cell suspensions cultured in RPMI1640 medium. All cells were incubated in 3 μM mTHPC and mTHPC loaded into different concentration of HSA based nanoparticles for set period of time (1 h, 3 h, 5 h, 24 h). The HSA-based nanoparticles of varying HSA concentration was used to determine the intracellular uptake and phototoxicity effect of the cells suspension.
# Trypan blue test was used to assess the necrotic cells, apoptotic cells were detected by their change of cell shape (apoptotic blebbing).
# In each case Jurkat cells were incubated in five samples. After 1 h, 3 h, 5 h. and 24 h incubation in darkness an aliquot of each sample was investigated. Trypan blue test was used to assess the necrotic cells, apoptotic cells were detected by their change of cell shape (apoptotic blebbing). Little or no effect was found. In other words dark toxicity was not observed for the mTHPC concentrations used.
# [1] = Singlet oxygen generation and triplet parameters; format: physicochemical; details: in ethanol
# Fluorescence lifetime = format: physicochemical
smiles,measurement,setting,value
"Oc1cccc(-c2c3nc(c(-c4cccc(O)c4)c4ccc([nH]4)c(-c4cccc(O)c4)c4nc(c(-c5cccc(O)c5)c5ccc2[nH]5)CC4)C=C3)c1 [mTHPC, 5,10,15,20-tetrakis(3-hydroxyphenyl)-chlorin]",Dark toxicity,Jurkat cells,not observed
O=C([O-])c1c(Cl)c(Cl)c(Cl)c(Cl)c1-c1c2cc(I)c(=O)c(I)c-2oc2c(I)c([O-])c(I)cc12.[Na+].[Na+] [Rose Bengal],ΦΔ (±0.03) (singlet oxygen quantum yield),[1],0.75
same,τT (lifetime of triplet state),[1],3.3 ± 0.1 μs
same,τΔ (lifetime of singlet oxygen),[1],64.1 ± 0.2 μs
"Oc1cccc(-c2c3nc(c(-c4cccc(O)c4)c4ccc([nH]4)c(-c4cccc(O)c4)c4nc(c(-c5cccc(O)c5)c5ccc2[nH]5)C=C4)C=C3)c1 [mTHPP, 5,10,15,20-tetrakis(m-hydroxyphenyl)-porphyrin]",τ3 [ns] ± 0.2,"Fluorescence lifetime; fluorescence lifetime, in EtOH (monomers)",9.6 ns
same,Amplitude [%] of τ3,Fluorescence lifetime; in EtOH,100%
